In patent publication US20220274947A1, “NOVEL HETEROARYL-TRIAZOLE COMPOUNDS AS PESTICIDES” (Bayer Aktiengesellschaft, priority 2019, published 2022):

Key:
Assay type in all cases: in vivo
Diabrotica balteata = Diabrotica balteata spray test; details: 168 h, wheat seeds, larvae, after 7 days, read-out: activity (efficacy: 100% means all seedlings have grown up like in the untreated, uninfected control); for pest or weed control at 32 µg/disc, 100 g/ha: application rate 100 g/ha (=32 μg/well); for pest or weed control at 160 µg/disc, 500 g/ha: application rate 500 g/ha (=160 μg/well)
Protocol: Diabrotica balteata—Spray Test Solvent: 78.0 parts by weight of acetone • • 1.5 parts by weight of dimethylformamide Emulsifier: alkylarylpolyglycol ether
(§1) To produce a suitable preparation of active compound, 1 part by weight of active compound is mixed with the stated amount of solvent, and the concentrate is diluted with water, containing an emulsifier concentration of 1000 ppm, to the desired concentration. Further test concentrations are prepared by dilution with emulsifier containing water.
Soaked wheat seeds (Triticum aestivum) are placed in a multiple well plate filled with agar and some water and are incubated for 1 day to germinate (5 seeds per well). The germinated wheat seeds are sprayed with a test solution containing the desired concentration of the active ingredient. Afterwards each unit is infected with 10-20 larvae of the banded cucumber beetle (Diabrotica balteata).
After 7 days efficacy in % is determined. 100% means all the seedlings have grown up like in the untreated, uninfected control; 0% means none of the seedlings have grown.

Rhipicephalus microplus [1] = assay: Rhipicephalus (Boophilus) microplus in-vitro contact test, larval cattle tick, strain Parkhurst (BOOPMI Cont); details: application rate 5 μg/cm^2 (=500 g/ha), tick larvae, after 48 hours, read-out: activity (efficacy: 100% means all larvae are dead or moribund)
Protocol: Rhipicephalus (Boophilus) Microplus—In-Vitro Contact Tests Larval Cattle Tick (Strain Parkhurst, Resistant Against Synthetic Pyrethroids) (BOOPMI Cont)
9 mg compound is solved in 1 mL acetone and diluted with acetone to the desired concentration. 250 μL of the test solution is filled in 25 mL glass test tubes and homogeneously distributed on the inner walls by rotation and tilting on a shaking device (2 h at 30 rpm). With a compound concentration of 900 ppm, an inner surface of 44.7 cm^2 and a homogeneous distribution, a dose of 5 μg/cm^2 is achieved.
After the solvent has evaporated, each test tube is filled with 20-50 cattle tick larvae (Rhipicephalus microplus), closed with a perforated lid and incubated in a horizontal position at 85% relative humidity and 27° C. in an incubator. After 48 hours efficacy is determined. The larvae are patted on the ground of the tubes and negative geotactic behavior is recorded.
An efficacy of 100% means all larvae are dead or moribund; 0% means no larvae are dead or moribund.

Ctenocephalides felis = Ctenocephalides felis oral test (CTECFE Oral); details: 48 h, read-out: activity (mortality)
Protocol: Ctenocephalides felis—Oral Test (CTECFE Oral) Solvent: dimethyl sulfoxide
To produce a suitable preparation of active compound, 10 mg of active compound are dissolved in 0.5 mL solvent, and the concentrate is diluted with cattle blood to the desired concentration.
Approximately 20 adult unfed cat fleas (Ctenocephalides felis) are placed in flea chambers. The blood chamber, sealed with parafilm on the bottom, are filled with cattle blood supplied with compound solution and placed on the gauze covered top of the flea chamber, so that the fleas are able to suck the blood. The blood chamber is heated to 37° C. whereas the flea chamber is kept at room temperature.
After 2 days mortality in % is determined. 100% means all the fleas have been killed; 0% means none of the fleas have been killed.

Spodoptera frugiperda = Spodoptera frugiperda spray test; details: in Zea mays, 168 h, read-out: activity (mortality)
Protocol: Spodoptera Fruaiperda—Spray Test
Solvent: 78.0 parts by weight acetone • 1.5 parts by weight dimethylformamide Emulsifier: alkylarylpolyglycol ether
as §1, with “solvents” for “solvent,”, “and” for “and the concentrate”
Maize (Zea mays) leaf sections are sprayed with a preparation of the active ingredient of the desired concentration. Once dry, the leaf sections are infested with fall armyworm larvae (Spodoptera frugiperda).
After 7 days mortality in % is determined. 100% means all caterpillars have been killed and 0% means none of the caterpillars have been killed.

Rhipicephalus microplus [2] = assay: Rhipicephalus (Boophilus) microplus injection test (BOOPMI Inj); details: 168 h, injection into adult engorged female ticks, egg deposition after 7 days, read-out: activity (efficacy: 100% means all eggs are infertile); for pest or weed control at 0.004 mg: application rate 4 μg/tick; for pest or weed control at 0.02 mg: application rate 20 μg/tick
Protocol: Rhipicephalus (Boophilus) Microplus—Injection Test (BOOPMI Inj)
Solvent: dimethyl sulfoxide
To produce a suitable preparation of active compound, 10 mg of active compound are dissolved in 0.5 mL solvent, and the concentrate is diluted with solvent to the desired concentration.
Five adult engorged female ticks (Rhipicephalus microplus) are injected with 1 μL compound solution into the abdomen. The ticks are transferred into replica plates and incubated in a climate chamber.
After 7 days egg deposition of fertile eggs is monitored. Eggs where fertility is not visible are stored in a climate chamber till hatching after about 42 days. An efficacy of 100% means all eggs are infertile; 0% means all eggs are fertile.

Rhipicephalus sanguineus = Rhipicephalus sanguineus in-vitro contact test, adult brown dog ticks (RHIPSA Cont); details: 48 h, after 48 hours, read-out: activity (efficacy: 100% means all ticks are dead or moribund); for pest or weed control at 1 µg/cm2, 100 g/ha: application rate 1 μg/cm^2 (=100 g/ha); for pest or weed control at 5 µg/cm2, 500 g/ha: application rate 5 μg/cm^2 (=500 g/ha)
Protocol: Rhipicephalus sanguineus-In-Vitro Contact Tests with Adult Brown Dog Ticks ([…] Cont) 9 mg compound is solved in 1 mL acetone and diluted with acetone to the desired concentration. 250 μL of the test solution is filled in 25 mL glass test tubes and homogeneously distributed on the inner walls by rotation and tilting on a shaking device (2 h at 30 rpm). […] After 48 hours efficacy is determined. The ticks are patted on the ground of the tubes and are incubated on a heating plate at 45-50° C. for at most 5 minutes. Immotile or uncoordinated moving ticks, which are not able to escape the heat by climbing upwards, are marked as dead or moribund.

[3] = tested on: Musca domestica strain WHO—N; assay: Musca domestica test (MUSCDO surface treatment & contact assay); details: surface concentration 4 mg/m^2, glazed tile, exposure 30 minutes, 24 hours after contact, read-out: efficacy (mortality)
Protocol: Musca domestica Test (MUSCDO Surface Treatment & Contact Assay) Solvent: Aceton+2000 ppm rapeseed oil methyl ester (RME)
(§2) In order to produce a sufficient, active ingredient containing solution it is necessary to solve the test compound in the solvent-mix (acetone at 2 mg/ml/RME 2000 ppm). This solution is pipetted onto a glazed tile and after evaporation of the acetone, adult flies of the species Musca domestica strain WHO—N are placed onto the dried surface. The exposure time is 30 minutes. Mortality in percent (%) is determined 24 hours after contact of the insects to the treated surface. 100% mortality means that all tested insects are dead, whereas 0% means that no insect died.

Myzus persicae = Myzus persicae oral test; details: 120 h, read-out: activity (mortality)
Protocol: Myzus persicae—Oral Test Solvent: 100 parts by weight acetone
To produce a suitable preparation of active compound, 1 part by weight of active compound is mixed with the stated amount of solvent, and the concentrate is diluted with water to the desired concentration.
50 μL compound solution is filled in microtiter plates and 150 μL IPL41 insect medium (33%+15% sugar) is added to obtain a total volume of 200 μL per well. Afterwards the plates are sealed with parafilm through which a mixed population of the green peach aphid (Myzus persicae) can suck on the compound preparation.
After 5 days mortality in % is determined. 100% means all aphids have been killed and 0% means none of the aphids have been killed.

[4] = tested on: Aedes aegypti strain MONHEIM; assay: Aedes aegypti test (AEDSAE surface treatment & contact assay); details: exposure 30 minutes, 24 hours after contact, read-out: efficacy (mortality); for mortality at 20 mg/m2: surface concentration 20 mg/m^2, glazed tile
Protocol: Aedes aegypti Test (AEDSAE Surface Treatment & Contact Assay) Solvent: Aceton+2000 ppm rapeseed oil methyl ester (RME)
as §2, with “mosquitoes” for “flies”, “Aedes aegypti” for “Musca domestica”, “MONHEIM” for “WHO—N”

Row | Compound | pest or weed control at 32 µg/disc, 100 g/ha (Diabrotica balteata) [%] | pest or weed control at 5 µg/cm2 (Rhipicephalus microplus [1]) [%] | mortality at 100 ppm (Ctenocephalides felis) [%] | mortality at 100 g/ha (Spodoptera frugiperda) [%] | pest or weed control at 0.004 mg (Rhipicephalus microplus [2]) [%] | pest or weed control at 0.02 mg (Rhipicephalus microplus [2]) [%] | pest or weed control at 1 µg/cm2, 100 g/ha (Rhipicephalus sanguineus) [%] | other results
1 | C[C@H](NC(=O)c1cc(Cl)cc(Cl)c1)c1nc(C2CC2)nn1-c1ccc(C#N)cn1 [I-5] | 100 | 100 | 100 | 100 | 100 | 100 | – | pest or weed control at 160 µg/disc, 500 g/ha (Diabrotica balteata): 100%; mortality at 500 g/ha (Spodoptera frugiperda): 100%
2 | CC(C)c1nc([C@H](C)NC(=O)c2cc(Br)cc(C(F)(F)F)c2)n(-c2ccc(C#N)cn2)n1 [I-21] | 80 | 100 | 100 | 100 | 100 | 100 | 100 | pest or weed control at 5 µg/cm2, 500 g/ha (Rhipicephalus sanguineus): 100%
3 | CC(C)c1nc([C@H](C)NC(=O)c2cc(Br)cc(C#N)c2)n(-c2ccc(C#N)cn2)n1 [I-25] | 100 | 100 | 100 | 100 | 100 | 100 | 100 | pest or weed control at 5 µg/cm2, 500 g/ha (Rhipicephalus sanguineus): 80%
4 | C[C@H](NC(=O)c1cc(Cl)cc(OC(F)(F)F)c1)c1nc(C2CC2)nn1-c1ccc(C#N)cn1 [I-33] | 100 | 100 | – | – | 100 | 100 | – | mortality at 4 mg/m2 [3]: 80 to 100%
5 | C[C@H](NC(=O)c1cc(Br)cc(Br)c1)c1nc(C2CC2)nn1-c1ccc(C#N)cn1 [I-36] | 100 | 100 | 90 | 100 | 100 | – | 100 | –
6 | C[C@H](NC(=O)c1cc(Br)cc(OC(F)(F)F)c1)c1nc(C2CC2)nn1-c1ccc(C#N)cn1 [I-41] | – | 100 | 100 | 100 | 100 | – | – | –
7 | CC(NC(=O)c1cncc(C(F)(F)F)c1)c1nc(Br)nn1-c1ccc(C#N)cn1 (stereo not drawn) [I-50] | – | 100 | – | – | – | – | – | mortality at 4 ppm (Myzus persicae): 100%
8 | COc1nc([C@H](C)NC(=O)c2cc(OC(F)(F)F)cc(C(F)F)c2)n(-c2ccc(C#N)cn2)n1 [I-63] | 100 | 100 | – | 100 | – | – | – | mortality at 4 ppm (Myzus persicae): 100%
9 | C[C@H](NC(=O)c1cc(Cl)cc(OC(F)(F)F)c1)c1ncnn1-c1cc(NC(=O)c2ccc(F)cc2)ccn1 [II-20] | – | – | 100 | – | 100 | 100 | – | –
10 | Cc1nc([C@H](C)NC(=O)c2cc(Cl)cc(OC(F)(F)F)c2)n(-c2cc(C#N)ccn2)n1 [II-34] | 100 | 100 | – | 100 | 100 | 100 | 100 | pest or weed control at 160 µg/disc, 500 g/ha (Diabrotica balteata): 100%; pest or weed control at 5 µg/cm2, 500 g/ha (Rhipicephalus sanguineus): 100%; mortality at 500 g/ha (Spodoptera frugiperda): 100%; mortality at 4 mg/m2 ([4]; surface concentration 4 mg/m^2, glazed tile): 80 to 100%; mortality at 20 mg/m2 [4]: 80 to 100%
11 | Cc1nc([C@H](C)NC(=O)c2cccc(Br)n2)n(-c2ccc(C#N)cn2)n1 [II-59] | – | – | 90 | – | 100 | 100 | 80 | pest or weed control at 5 µg/cm2, 500 g/ha (Rhipicephalus sanguineus): 80%
12 | CC[C@H](NC(=O)c1cc(Cl)cc(C(F)(F)F)c1)c1nc(C)nn1-c1ncc(OC(F)F)cn1 [II-60] | – | 100 | 100 | – | 100 | 100 | – | –
13 | C[C@H](NC(=O)c1cc(C(F)(F)F)cc(C(F)(F)F)c1)c1ncnn1-c1cc(C(=O)NCC(F)(F)F)ccn1 [II-87] | 100 | 80 | – | 100 | – | – | – | mortality at 4 ppm (Myzus persicae): 100%
14 | C[C@H](NC(=O)c1cc(C(F)(F)F)cc(C(F)(F)F)c1)c1ncnn1-c1cc(C(=O)NCC#N)ccn1 [II-89] | 100 | 80 | – | – | 80 | – | – | mortality at 0.8 ppm (Myzus persicae): 100%; mortality at 4 ppm (Myzus persicae): 100%
15 | C[C@H](NC(=O)c1cc(Cl)cc(C(F)F)c1)c1ncnn1-c1ccc(C#N)cn1 [II- 12] | – | – | – | – | – | – | – | mortality at 20 mg/m2 [4]: 80 to 100%
